Reference: patent USRE29469E, “Hydroxylated 15-deoxy derivatives of 9-hydroxyl-13-trans-prostenoic acid” (American Cyanamid Company, priority 1976, dated 1977)

Columns and labels:
gastric acid secretion = test: Inhibition of gastric acid secretion (modified Shay rat procedure); type: in vivo, rats (male, CFE strain); conditions: 3 hours; for inhibition in vivo at 50 mg/kg: intraduodenal dose 50 mg./kg of body weight
Description: The novel compounds of the present invention are also effective inhibitors of gastric acid secretion and of ulcer development in experimental animals, and thus are potentially valuable as agents for the control of gastric acid secretion and of gastric erosion and as anti-ulcer agents. Gastric acid secretion inhibitory action is usually measure by the "Shay rat" procedure^(1,2) with some modifications as follows.
The rats (male, CFE strain) were starved for 48 hours (water was given ad libitum) to permit evacuation of stomach contents. On the morning of the experiment, under ether anesthesia, the abdominal region was shaved and a midline incision (1-11/2 inches) was made with a scapel. With the help of a closed curved hemostate the duodenum was picked up. Upon getting the duodenum into view, fingers were used to pull the stomach through the opening, the stomach was then gently manipulated with fingers to rid the stomach of air and residual matter which were pushed through the pylorus. Two-5 inch sutures were drawn under the pyloric-duodenal puncture. A ligature, at the juncture, was formed with one of the threads. The second ligature was also formed but not tightened.
The test compound and the vehicle, usually 1 ml./100 g. body weight, were injected into the duodenum as close as possible to the first ligature. After injection the second ligature was tightened below the injection site to minimize leakage. The stomach was placed back through the opening into the abdominal cavity, the area of incision was washed with saline and the incision was closed with autoclips. (Occasionally, instead of an intraduodenal injection, animals were dosed by the oral or subcutaneous route. In the latter case, dosing was done 30 to 60 minutes before the operation.)
The abdominal cavity was exposed by cutting with scissors and the esophagus close to the stomach was clamped off with a hemostat, the stomach was removed by cutting above the hemostat (the .[.espphagus.]. .Iadd.esophagus .Iaddend.was cut) and between the two sutures. Extraneous .[.tisue.]. .Iadd.tissue .Iaddend.was removed, the stomach washed with saline and blotted on gauze. A slit was carefully made in the stomach which was held over a funnel and the contents were collected in a centrifuge tube. The stomach was further cut along the outside edge and turned inside out. Two ml. H2 O were used to wash the stomach contents into the respective centrifuged tube. The combined stomach contents and wash were then centrifuged out for 10 min. in the International Size 2 Centrifuge (setting at 30). The supernatant was collected, volume measured and recorded, 2 drops of a phenylphthalein indicator (1% in 95% ethanol) were added and the solution was titrated with 0.02N NaOH (or with 0.04N NaOH when large volumes of stomach contents were encountered to pH 8.4 (because of usual coloring of the stomach contents, phenolphthalein was only used to permit visual indication that the end point was near) and the amount of acid present was calculated.
Compounds inducing inhibition of gastric acid secretion of 20% or more were considered active. In a representative operation, and merely by way of illustration, the results obtained with this assay with typical compounds of the present invention are given in Table II below.

[1] = test system: bronchospasms elicited by histamine; test: Bronchodilator activity (Konzett assay) against histamine; type: in vivo, guinea pigs; conditions: guinea pig, three cumulative intravenous doses; for ED50: Cavia porcellus, read-out: ED50, spasmogenic agent histamine
Description: (§1) Bronchodilator activity was determined in guinea pigs against bronchospasms elicited by intravenous injections of 5-hydroxytryptamine, histamine or acetylcholine by the Konzett procedure, [See J. Lulling, P. Lievens, F. El Sayed and J. Prignot, Arzneimittel-Forschung, 18, 995 (1968).]
(§2) In the Table which follows bronchodilator activity for representative compounds of this invention against one or more of the three spasmogenic agents is expressed as an ED50 determined from the results obtained with three logarithemic cumulative intravenous dose.

[2] = test system: bronchospasms elicited by 5-hydroxytryptamine; test: Bronchodilator activity (Konzett assay) against 5-hydroxytryptamine; type: in vivo, guinea pigs; conditions: guinea pig, three cumulative intravenous doses; for ED50: Cavia porcellus, read-out: ED50, spasmogenic agent 5-hydroxytryptamine
Description: as §1, §2

[3] = test system: bronchospasms elicited by acetylcholine; test: Bronchodilator activity (Konzett assay) against acetylcholine; type: in vivo, guinea pigs; conditions: Cavia porcellus, guinea pig, three cumulative intravenous doses, read-out: ED50, spasmogenic agent choline
Description: as §1, §2

[4] = test system: ulcerogenic properties of indomethacin; test: Anti-ulcerogenic effect (protection against the ulcerogenic properties of indomethacin); type: in vivo, rats; conditions: indomethacin 20 mg./kg s.c.
Description: The compounds of this invention also provide protection against the ulcerogenic properties of indomethacin. This assay was carried out in the following manner.
Rats were starved for 48 hours (water was given ad libitum). Indomethacin (20 mg./kg. of body weight) was administered by the subcutaneous route and one-half the dose of the test compound was administered by gavage at the same time. After 3 hours, the second half of the test compound was administered also by gavage. Five hours after the administration of indomethacin the animals were decapitated and the stomachs removed. The stomachs were washed with distilled water, blotted on gauze, cut along the larger curvature, and the contents rinsed with distilled water. The stomachs were spread out, pinned on a cork and visualized under magnifying glass for ulcers. The criteria for scoring of .[.ulers.]. .Iadd.ulcers .Iaddend. was as previously reported. [Abdel-Galil et al. Brit. J. Pharmac. Chemotherapy 33:1-14 (1968)]. […]
1- Petechial hemorrhage or pin point ulcers
3- Many ulcers, a few large
4- Many ulcers, mainly large
A difference of at least 0.7 unit between the scores for control animals (treated with indomethacin but not test compound) and animals treated with indomethacin and test compound is considered indicative of activity for the test compound. (Control animals treated with neither indomethacin nor test compound give scores of about 0.5-0.8.) The results obtained in this assay with typical compounds of the present invention are set forth in Table I below.

[5] = Rattus norvegicus, read-out: Percent Inhibition
[6] = total oral dose 50 mg./kg, control score 2.3, scale 0 (normal stomach) to 4 (many ulcers, mainly large)
[7] = Rattus norvegicus, intraduodenal dose 100 mg./kg of body weight, read-out: Percent Inhibition

Row | Molecule | ED50 [3] | ED50 [1] | ED50 [2] | inhibition in vivo at 50 mg/kg (gastric acid secretion; [5]) | also measured
1 | 9-oxo-18-hydroxy-19-hydroxy-13-trans-prostenoic acid | – | – | – | – | Percent Inhibition (gastric acid secretion; intraduodenal dose 100 mg./kg of body weight): 28%; ED50, spasmogenic agent histamine [1]: 1.04 mg/kg; ED50, spasmogenic agent 5-hydroxytryptamine [2]: 1.19 mg/kg
2 | CCCCC(O)C/C=C/[C@H]1[C@H](O)CC(=O)[C@@H]1CCCCCCC(=O)O (relative stereo) [9-oxo-11α ,16-dihydroxy-13-trans-prostenoic acid] | 0.00042 mg/kg | 0.166 mg/kg | 0.000607 mg/kg | – | inhibition in vivo at 0.4 mg/kg (gastric acid secretion; Rattus norvegicus, dose 0.4* mg./kg of body weight (asterisk not explained), read-out: Percent Inhibition): 27%; inhibition in vivo at 0.8 mg/kg (gastric acid secretion; Rattus norvegicus, dose 0.8* mg./kg of body weight (asterisk not explained), read-out: Percent Inhibition): 53%; inhibition in vivo at 1.6 mg/kg (gastric acid secretion; Rattus norvegicus, dose 1.6* mg./kg of body weight (asterisk not explained), read-out: Percent Inhibition): 79%; Score treated ([4]; total oral dose 0.18 mg./kg, control score 3.0, scale 0-4): 2.5; Score treated ([4]; total oral dose 0.39 mg./kg, control score 3.0, scale 0-4): 2.0; Score treated ([4]; total oral dose 0.78 mg./kg, control score 3.0, scale 0-4): 1.5; Score treated ([4]; total oral dose 1.56 mg./kg, control score 2.5, scale 0-4): 1.0; Score treated ([4]; total oral dose 4.4 mg./kg, control score 3.0, scale 0-4): 1.0; Score treated ([4]; total oral dose 12.5 mg./kg, control score 3.0, scale 0-4): 1.0
3 | CCCC(O)CC/C=C/[C@H]1[C@H](O)CC(=O)[C@@H]1CCCCCCC(=O)O (relative stereo) [9-oxo-11α,17-dihydroxy-13-trans-prostenoic acid] | 0.518 mg/kg | 0.45 mg/kg | 0.235 mg/kg | 73% | Score treated ([4]; total oral dose 25 mg./kg, control score 2.7, scale 0-4): 1.3
4 | O=C(O)CCCCCC[C@H]1C(=O)C[C@@H](O)[C@@H]1/C=C/CCCCCCO (relative stereo) [11α ,20-dihydroxy-9-oxo-13-trans-prostenoic acid] | 2.34 mg/kg | 0.077 mg/kg | 0.377 mg/kg | – | –
5 | CCCCC(O)C/C=C/[C@H]1CCC(=O)[C@@H]1CCCCCCC(=O)O (relative stereo) [16-hydroxy-9-oxo-13-trans-prostenoic acid] | 0.455 mg/kg | 0.0346 mg/kg | – | 67% | Score treated [4, 6]: 1.2
6 | O=C(O)CCCCCC[C@H]1C(=O)C=C[C@@H]1/C=C/CCCCCCO (relative stereo) [20-hydroxy-9-oxo-10,13-trans-prostadienoic acid] | – | 2.28 mg/kg | 1.32 mg/kg | 91% | –
7 | O=C(O)CCCCCC[C@H]1C(=O)CC[C@@H]1/C=C/CCCCCCO (relative stereo) [20-hydroxy-9-oxo-13-trans-prostenoic acid] | 2.16 mg/kg | 0.03 mg/kg | 0.117 mg/kg | – | inhibition in vivo at 100 mg/kg (gastric acid secretion; [7]): 56%
8 | O=C(O)CCCCCC[C@@H]1C(=O)CC[C@H]1/C=C/CCCCO (relative stereo) [20-hydroxy-9-oxo-18,19-dinor-13-trans-prostenoic acid] | 10 mg/kg | 2.22 mg/kg | 2.85 mg/kg | 21% | –
9 | CCOC(=O)CCCCCC[C@@H]1C(=O)CC[C@H]1/C=C/CCCCO (relative stereo) [ethyl 20-hydroxy-9-oxo-18,19-dinor-13trans-prostenoate] | – | – | – | – | inhibition in vivo at 100 mg/kg (gastric acid secretion; [7]): 49%
10 | CCCCC(O)CCC[C@H]1CCC(=O)[C@@H]1CCCCCCC(=O)O (stereo partly shown) [9-oxo-16-hydroxy-prostanoic acid, 16-hydroxy-9-oxo-prostanoic acid] | 1.13 mg/kg | – | 0.0927 mg/kg | 58% | Score treated [4, 6]: 1.3
